What was measured:
[1] = tested on: SKH-1 hairless mice; assay: Hairless mouse assay: skin histology and skin compartment measurements; format: in vivo; details: H&E stained biopsies, after 3 weeks of treatment
Excerpt: Experimental Design. 48 female SKH-1 hairless mice (5 weeks old, 20-25 grams, Charles River Laboratories, Wilmington, Mass.) are individually housed in filter-top cages, and acclimated for 5-7 days after delivery. The mice are divided into 8 treatment groups (n=6), including two different control groups (untreated control, vehicle control) and a therapeutic control (tretinoin 0.05% Renova™ cream). Cage cards are marked to indicate treatment groups 1-8. Water and mouse chow are provided ad libitum.
Topical Treatments. Beginning on Treatment Day 1, test products are applied topically each morning (Monday through Friday) after erythema evaluations for 3 weeks. Using a positive displacement pipette, 20 mg of each agent is applied to a 2 cm×2 cm area of the center midline of the back. The material was spread across the treatment area with the pipette tip.
Skin Histology. Skin biopsies are taken of each treatment site and untreated control skin. Biopsies are fixed in 4% neutral buffered formalin, embedded in paraffin, and stained with hematoxylin and eosin. The stained skin sections are examined to determine the effects of the treatment on epidermal, dermal, and stratum corneum histology. Biopsies are also microscopically examined for inflammatory cells.
Skin Compartment Measurements. The H&E stained biopsy slides were imaged using a trinocular Olympus BH-2 microscope fitted with a Microfire 2.1×3 Digital Camera. 100× images were digitized and stored on CD using MS Pictureframe and Microfire Software. All compartment images were measured using a calibrated micrometer. An average of three measurements of each compartment for two slide images per biopsy was obtained and tabulated, and means and standard deviations were calculated.

[2] = tested on: senescent human skin fibroblasts; assay: Effects on senescent human skin fibroblasts (morphology, cell number); format: cell-based
Excerpt: B) Cellular parameters: • (4) Cellular morphology: to evaluate cytoplasmic and nuclear stability; • (5) Cytoskeleton organization: to evaluate the stability of the cytoskeleton; • (6) Appearance of senescence-specific β-galactosidase: to rule out pro-aging effects; • (7) Lysosomal staining (Neutral red); • (8) JC-1 Staining of Mitochondria: for evaluation of mitochondrial function; • (9) Rejuvenation studies: for evaluation of reversion effect from aged phenotype to young phenotype; and
All cell culture experiments were performed on early and mid passage cultures (about 20 to 40% lifespan completed) of normal human skin fibroblast line, designated ASF-2. In order to check the effects of test compounds on senescent cells, late passage cells with more than 90% lifespan completed were used. ASF-2 cell line was established from a mammary skin biopsy obtained from a young, non-smoking and healthy […] at the time of breast reduction operation. Normal culture conditions of medium (DMEM) containing antibiotics, 10% foetal calf serum, and incubation at 37° C. with 95% humidity were used. The effects of the test compounds were determined using the following procedures.

[3] = tested on: Salmonella typhimurium histidien auxotrophs TA98 and TA100; assay: Ames test; format: cell-based; details: 2.5-5000 μg/plate, presence and absence of Aroclor-induced rat liver S9
Description: Ames Test. A number of tests related to the safety of these inventive compounds have been carried out using conventionally accepted protocols and procedures. Tests were carried out using DMSO as solvent and dose levels of 8-amino-6-furfurylaminopurine at 2.5, 5.0, 15, 50, 500, 1500, and 5000 μg/plate based upon standard protocol and procedures (Ames et al., Mutation Research, 31, 347-364 (1975); Maron et al., Mutation Research, 113, 173-215 (1983)).

[4] = tested on: erytroid leukemia cell line K-562; assay: In vitro cytotoxic activity (metabolisation of Calcein AM); format: cell-based, human; details: Homo sapiens, K562, 72 hours, highest concentration tested 100 μM in routine testing
How it was run: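 Cells were pre-incubated 24 hours at 2.500-30.000 cells per well, then exposed to six 3-fold dilutions, usually from 100 μM top, for 72 hours at 37° C, 5% CO2, in triplicate. Calcein AM was added at 1 μg/ml final and fluorescence read after 1 hour; GI50 is the concentration halving Calcein AM conversion.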

In the case of `Nc1nc2c(NCc3ccco3)ncnc2[nH]1` [Compound 82, 6-furfurylamino-8-aminopurine], the skin compartment thickness [1] was “least effect on skin thickness”, the “number of surviving senescent cells” value ([2]; 7 to 14 days) was “maintains the number of surviving senescent cells” and the “appearance of senescent cells (intracellular debris)” value ([2]; 40 and 80 μM, vs controls) was “less intracellular debris”. For the same molecule, the “morphology of senescent cells” value ([2]; after 14 days of treatment) was “looking relatively younger”, the mutagenic responses [3] was “no positive mutagenic responses” and the GI50 [4] was 68.2 µM.

Reference: patent US20130072506A1, “6,8-DISUBSTITUTED PURINE COMPOSITIONS” (priority 2011, published 2013)
